Experimental data published in patent US20160237106A1 (priority 2015, published 2016).

Columns and labels:
[1] = in vitro; details: African green monkey
[2] = test system: Ebola virus; test: microbe, parasite or virus in culture; assay type: cell-based; details: Zaire ebolavirus, Vero C1008

Row | Compound | CC50 [1] [µM] | EC50 [2] [µM]
1 | C[C@H](NP(=O)(OC[C@@]1(N=[N+]=[N-])O[C@@H](n2ccc(=O)[nH]c2=O)[C@H](O)[C@@H]1O)Oc1cccc2ccccc12)C(=O)OCc1ccccc1 (stereo partly drawn) [Compound I-6, 4′-Azidouridine-5′-(O-1-naphthyl-N-(S)-1-(benzyloxycarbonyl)ethyl phosphoramidate] | > 50 | < 20
2 | [N-]=[N+]=N[C@]1(CO)O[C@@H](n2ccc(N)nc2=O)[C@H](F)[C@@H]1O [Compound I-17, 4′-Azido-2′-deoxy-2′-fluorocytidine] | > 50 | < 20
3 | [N-]=[N+]=N[C@]1(CO)O[C@@H](n2cnc3c(=O)[nH]c(N)nc32)[C@H](F)[C@@H]1O [Compound I-47, 4′-Azido-2′-deoxy-2′-fluoroguanosine] | > 50 | < 20
4 | [N-]=[N+]=N[C@]1(CO)O[C@@H](n2cnc3c(=O)[nH]c(N)nc32)[C@H](O)[C@@H]1O [Compound I-48, 4′-Azidoguanosine] | > 50 | < 50
